Data taken from patent US12391646B2, “Using adiponectin receptor agonists to treat inflammation and bone diseases in diabetes” (Trustees of Tufts College, priority 2020, dated 2025).

Tests used:
[1] = cited from earlier work
[2] = test system: AdipoRs; conditions: cited from earlier work
[3] = test system: RAW 264.7 cells; test: CCK-8 cell viability assay, Example 2; conditions: 2 days, compared with vehicle-treated group
Method: RAW 264.7 cells were treated with receptor activator of nuclear factor KB ligand (RANKL) (100 ng/ml) for 2 days with or without AdipoRon (20 μM) or AdipoAI (5 μM) for another 2 days. […] (C) The CCK-8 analysis of RAW 264.7 cells treated with 20 μM AdipoRon or 5 μM AdipoAI for 48 h. (D) The CCK-8 analysis of RAW 264.7 cells' proliferation at different doses of APR and AdipoAI. Cells were treated with 100 ng/ml RANKL for 2 days with or without AdipoRon (5, 20 μM) or AdipoAI (5, 20 μM) every 2 days for 4 days. […] Data are shown as mean±SD., compared with the vehicle-treated group, *P<0.05. **P<0.01. ***P<0.001.
RAW 264.7 cells (2×10^3 cells/well) were seeded in 96-well plates and treated with or without AdipoRon or AdipoAI for 48 hours in a humidified chamber at 37° C. in 5% CO2 and air. Cell viability was determined with the Cell Counting Kit-8 (CCK-8 kit, Dojindo, Santa Clara, CA, USA) following the manufacturer's recommendations. Briefly, CCK-8 solution (10 μL) was added to each well and cells were incubated in dark for 3 hours. Cell viability was determined by measuring the absorbance at 450 nm.

[4] = test system: LPS-induced Raw264.7 cells; test: ELISA of IL-6 and IL-1β in supernatants of LPS-induced Raw264.7 cells; assay type: cell-based; conditions: AdipoAI 5 μM 24 h then LPS 6 h
Method: (§1) FIG. 2 AdipoAI suppresses LPS-stimulated inflammatory responses in macrophages. (a) Raw264.7 cells or (b) BMMs were pretreated with APR (20 μM) or AdipoAI (5 μM) for 24 h followed by incubation with LPS (100 ng/mL) for additional 6 h for the measurement of IL-6 and IL-1β in supernatants by ELISA. Data were expressed as the mean±SEM at five biological independent experiments. One-way ANOVA test for multiple-group comparisons, * vs. LPS group, *P<0.05, significant differences between each indicated group. (c) PEMs were isolated from C57BL/6J mice (n=5 mice/group) were injected i.p. with ImL 4% thioglycolate solution or AdipoAI (25 mg/kg) for the measurement of IL-6 and IL-1β. The amounts of IL-6 and IL-1β in supernatant were measured by ELISA. Data were expressed as the mean±SEM (n=5). Two-tailed Student's t-test for two groups, *P<0.05, significant differences between each indicated group. (d-f) Impact of AdipoAI on basal (d) and LPS-induced expression of an array of proinflammatory cytokines, chemokines, and receptors (e,f) in Raw264.7 cells (4 groups and 3 biological replicates/group). Data analyses were performed according to the manufacturer's instructions with their web-based software package (www.qiagen.com/us/shop/genes-and-pathways/data-analysis-center overview-page/). […]

[5] = test system: LPS-stimulated Raw264.7 cells; test: mRNA microarray analysis of LPS-stimulated Raw264.7 cells; assay type: cell-based
Method: as §1, with “overview-page/). (g) Differentiated expressed genes annotated to a gene-ontology term and example genes by gene-ontology-enrichment analysis of each component. (brown: LPS vs control; black: AdipoAI+LPS vs LPS). (h) Differentially expressed M1 and M2 genes are shown according to the microarray databases.” for “overview-page/).”
FIG. 7 AdipoAI regulated methylation level of the c-Maf gene promoter to suppress c-Maf activation in LPS-induced macrophages. […] (b) mRNA levels of c-Maf were determined by qPCR in Raw264.7 cells, BMMs and PEMs treated with AdiopoAI or LPS. Data were expressed as the mean±SEM at five […] biological independent experiments. […] (c) c-Maf mRNA expression levels in lung, spleen, liver and WAT of LPS-induced endotoxemia mice were measured by qRT-PCR and normalized with GAPDH mRNA levels. Data are expressed as mean±SEM (n=6). […]

[6] = test system: AdipoR1/2 mRNA expression; test: qRT-PCR of AdipoR1/2 mRNA in Raw264.7 cells; assay type: cell-based; conditions: 24 h
Method: FIG. 10 Raw264.7 cells were treated with different doses of AdipoAI for 24 h to measure AdipoR1/2 mRNA expression by qRT-PCR. Data were expressed as the mean±SEM at five biological independent experiments. One-way ANOVA test for multiple-group comparisons, * vs. control group. *P<0.05, significant differences between each indicated group.
Total RNA of cells was extracted using Quick-RNA Miniprep Kit (ZYMO Research, Irvine, CA, USA) and total RNA from mouse tissues was prepared with TriZol reagent (Life Technologies) according to the manufacturer's instructions followed by qRT-PCR assays as described previously (L. Zhang et al., 2014). 1 μg of total RNA was used for reverse transcription using the M-MLV Reverse Transcriptase (Thermo Scientific, Waltham, MA, USA) according to the manufacturer's protocol using PowerUp SYBR Green Master Mix (Thermo Scientific) on a Bio-Rad iQ5 thermal cycler (Bio-Rad Laboratories, Hercules, CA, USA). Differences in expression were evaluated by the comparative cycle threshold method using GAPDH or β-actin as a control. The primer sequences used for the qRT-PCR experiments are listed in supplemental Table 1.

[7] = test system: LPS-stimulated bone marrow-derived macrophages (BMMs); test: qRT-PCR of IL-6 and IL-1β mRNA in LPS-stimulated BMMs; assay type: cell-based, C57BL/6J mice; conditions: AdipoAI 5 μM compared with compound 5 (5 μM) and APR (20 μM)

SMILES | solubility [1] | binding affinity for AdipoRs [2] | number of RAW 264.7 cells (CCK-8) at 20 μM [3] | IL-6 and IL-1β protein levels (ELISA) [4] | expression of M1 or M2 macrophage-related genes ([5]; LPS-induced Raw264.7 cells) | expression of proinflammatory cytokines, chemokines and receptors (microarray) ([5]; LPS-stimulated Raw264.7 cells) | c-Maf mRNA levels (microarray) ([5]; LPS-treated Raw264.7 cells) | mRNA levels of AdipoRs [6] | inhibition of LPS-stimulated IL-6 and IL-1β expression in BMMs [7]
O=C(COc1ccc(C(=O)c2ccccc2)cc1)NC1CCN(Cc2ccccc2)CC1 [AdipoRon, reference compound] | relatively low solubility | low binding affinity for AdipoRs | did not reduce the number of RAW 264.7 cells | – | – | – | – | – | –
COc1ccc(CN2CCC(NC(=O)COc3ccc(C(=O)c4ccc(Cl)cc4)cc3)CC2)cc1 [Compound 3] | – | – | – | decreased IL-6 and IL-1β protein levels | did not alter the expression of M1 or M2 macrophage-related genes | decreased the expression of the same genes to near basal levels | inhibited | increased the mRNA levels of AdipoRs | strongest inhibitory effects
